Entries after “also recorded” stand apart in the source; their conditions may differ. Ends that are not written are not given here.
How the values were obtained:
rabbit ileum = assay: Tissue resistance (Rt) of rabbit ileum mounted in Ussing chambers
Protocol: Next, rabbit ileum mounted in Ussing chambers as described below, were exposed to 100 μg of FZI/O (SEQ ID NO:15), 100 μg of FZI/1 (SEQ ID NO:29), 1.0 μg of 6×His-ZOT (obtained as described in Example 1 of U.S. patent application Ser. No. 09/127,815, filed Aug. 3, 1998), 1.0 μg of zonulini (obtained as described in Example 3 of U.S. patent application Ser. No. 09/127,815, filed Aug. 3, 1998), or 1.0 μg of zonulinh (obtained as described in Example 3 of U.S. patent application Ser. No. 09/127,815, filed Aug. 3, 1998), alone; or pre-exposed for 20 min to 100 μg of FZI/O or FZI/1, at which time 1.0 μg of 6×His-ZOT, 1.0 μg of zonulini, or 1.0 μg of zonulinh was added. ΔRt was then calculated as Rt=PD/Isc where PD=potential difference and Isc=short circuit current.

BB/Wor rats = assay: Prevention of diabetes in BB/Wor rats, antagonist in drinking water; type: in vivo, rat; conditions: 10 μg/ml in drinking water, n=5
Protocol: Both groups were maintained on a standard diet of rat chow (Harlan Teklab Diet #7012). All food and water were previously autoclaved. Each day, daily water intake was measured and 100 ml of fresh water was given. The treated group received 10 μg/ml of the zonulin peptide antagonist (SEQ ID NO: 15) supplemented in the drinking water. The rats were housed in hepa-filter cages.
Diabetes in the rats was diagnosed as follows: The rats were weighed twice a week. Blood glucose was determined weekly using the OneTouch® glucose monitoring system (Johnson & Johnson). Each week, reagent strips for urinalysis were used to monitor glucose (Diastix®) and ketones (Ketositx®) (Bayer). Rats with a blood glucose >250 mg/dl were fasted overnight, and blood glucose levels >200 mg/dl were considered diabetic.
Following clinical presentation of diabetes, the rats were sacrificed as follows: the rats were anesthesized using ketamine anesthesia and a midline incision was made allowing access to the heart. An 18 G needle was placed into the heart and death occurred by exsanguinations. Then, zonulin assays were conducted as described above. […] According to Biomedical Research Models, Inc., 80% of diabetes prone rats present with diabetes by age 80 days.

BBDP rats = assay: Treatment of autoimmune diabetes in BBDP rats, therapy initiated after seroconversion; type: in vivo, rat
Protocol: A test group of 52-54 day old diabetes-prone rats were treated with a zonulin antagonist peptide AT1001 (SEQ ID NO:15) while an age matched control group was not treated. The antagonist was administered at this time because at 40 days these rats show an increase in zonulin levels and at 50 days autoimmune antibodies can be detected. Thus, treatment was started after […].
BBDP animals age 52-54 were days divided in two groups. Group 1 (n=20) received AT-1001 daily in drinking water+HCO3. Group 2 (n=10) received drinking water+HCO3. Animals were randomized to receive either placebo or treatment with the synthetic zonulin peptide inhibitor AT-1001 (SEQ ID:15) in their water supply in a blinded fashion during treatment arm T0. At the disease endpoint (fasting blood glucose>250 mg/dl), BBDP rats that developed T1D (60% incidence in placebo group, average age 110 days) were euthanized and blood and tissue samples collected. […] Serum zonulin and autoantibody levels were monitored at the beginning of the study and at its endpoint. Water intake was monitored daily, while weight gain and serum glucose levels were checked weekly. Rats with fasting blood glucose ≧250 mg/dl were considered diabetic and were sacrificed within 24 hours of reaching the diabetic status.

[1] = system: pancreatic islets of BBDP rats; assay: Histology and immunohistology of pancreata of BBDP rats; type: in vivo, rat; conditions: treated rats that did not develop T1D; listed as AT1001
Protocol: Samples of the pancreas were taken from animals that had been treated starting at day […] and examined. The results of the histological examination are shown in FIG. 9 and the results of the immunohistological examination are shown in FIG. 10.
To verify the identities of the cells observed in the histological analysis, immunohistological examination was conducted. Pancreata were sequentially stained with either anti-glucagon antibody, which is specific for glucon-producing […], or with anti-insulin antibodies, which is specific for insulin-producing β-cells. When untreated pancreas is stained with anti-insulin antibodies, no signal is detected. This is consistent with the destruction of β-cells in T1D. Staining of these cells with anti-glucagon antibodies identifies glucagon producing […]. Normal islets have a loaf-shaped structure with the outside of the islet containing […] and the inside of the islet containing β-cells. […] The structure of the islets was more normal as indicated by the staining pattern with anti-glucagon antibodies FIG. 10D.

FZI/1: second synthetic peptide: Gly in position 8, Val in position 12, Gln in position 13 changed to residues of zonulinb (Val, Gly, Arg) (VGVLGRPG; sythetic peptide) [reference compound]
inhibitory effect on the Rt change induced by ZOT, zonulini and zonulinh (rabbit ileum; pre-exposure for 20 min to 100 μg peptide): completely ablated

GGVLVQPG [FZI/O, synthetic octapeptide corresponding to amino acid residues 8-15 of human fetal zonulin]
change in Rt as compared to the negative control (rabbit ileum; 100 μg peptide alone): 0.5%
decrease of the effect of ZOT on Rt (rabbit ileum; pre-treatment for 20 min with 100 μg peptide, then 1.0 μg 6×His-ZOT): 75%
decrease of the effect of zonulinh on Rt (rabbit ileum; pre-treatment for 20 min with 100 μg peptide, then 1.0 μg zonulinh): 100%
decrease of the effect of zonulini on Rt (rabbit ileum; pre-treatment for 20 min with 100 μg peptide, then 1.0 μg zonulini): 97%
rats that developed diabetes by age 80 days (BB/Wor rats): 40%
treated rats that did not develop diabetes (BB/Wor rats): 60%
animals that developed diabetes under continued treatment (BBDP rats; continued treatment after 120 days, arm T1): none
anti-glutamic acid decarboxylase (GAD) antibodies (BBDP rats; following treatment): significant reduction
average age of onset of T1D (BBDP rats; treated group): 86.0 ± 10.3 days
animals that progressed to T1D (BBDP rats; treatment arm T0, in drinking water from age 52-54 days): 35%
rats that developed diabetes (BBDP rats; treatment arm T0, treated group n=20): 7 of 20
progression to T1D (BBDP rats; up to age 205 days (150 days post-treatment)): significantly reduced
animals that developed diabetes after treatment was withdrawn (fraction) (BBDP rats; withdrawal after 120 days): ⅓
onset of T1D after withdrawal of treatment (BBDP rats; withdrawal at age 120 days, arm T1): 33%
pancreas histology (haematoxylin and eosin) [1]: evidence of the regeneration of β-cells was observed; also recorded: either normal islet histology or islet showing signs of recovery from insulitis; also recorded: perivascular inflammation without insulitis
pancreatic islet immunohistology (insulin and glucagon staining) [1]: preserved islets with detectable insulin-producing beta cells; also recorded: islets that were either undamaged (C and D) or showed signs of recovery from an insulitis insult

Source: US20060287233A1, “Method of use of antagonists of zonulin to prevent the loss of or to regenerate pancreatic cells” (priority 2005, published 2006)
